Key:
Type in all cases: in vivo
rats [1] = assay: Sedative effect (loss of the righting reflex) in rats; details: 10 rats; dose of 0.5 mg/kg
Procedure: (§1) (C) The following tests concerning the sedative effect of 4-(2,6-dimethylbenzyl)imidazole and the inhibition of this effect with compound (I) were carried out in rats.
A dose of 0.5 mg/kg of 4-(2,6-dimethylbenzyl) imidazole was injected into 10 rats. This dose induced loss of the righting reflex for 1 h.

rats [2] = assay: Inhibition of the sedative effect of 4-(2,6-dimethylbenzyl)imidazole in rats (spontaneous locomotor activity, activity meter); details: compound (I) 1-3 mg/kg i.v. or i.p., 15 minutes after 4-(2,6-dimethylbenzyl)imidazole
Procedure: as §1
In other tests, compound (I) was given i.v. or i.p. to rats at a dose of 1-3 mg/kg, 15 minutes after the administration of 4-(2,6-dimethylbenzyl)imidazole. The recovery of the animals from the sedation was observed by measuring their spontaneous locomotor activity with an activity meter.

Horses (4) = assay: Awakening from detomidine-induced sedation, horses; details: detomidine 0.04-0.06 mg/kg i.m., compound (I) i.v. after 30 min, dose five times greater than that of detomidine
Procedure: (§2) Trials were carried out as follows: • (A) A dose of 0.04-0.06 mg/kg of detomidine was injected i.m. into the test animals. After exactly 30 min. compound (I) was given intravenously. The awakening of the animal or its recovery from the sedation was then observed. Calves (8) and Cows (7) recovered from detomidine-induced sedation in 2 to 5 minutes from the injection of compound (I). Horses (4) awoke in 5 to 10 min. The awakening effect of compound (I) was found stable for both species. […] For the calves and cows, the dose of compound (I) was the same as the dose of detomidine. For the horses, the dose of compound (I) was five times greater than that of detomidine. • (B) A dose of 2 mg/kg of xylazine was injected i.m. into 10 dogs. This injection induced sedation which lasted for 0.5 - 1 hr. During this time the dogs were able to walk only with difficulty.

Calves (8) and Cows (7) = assay: Awakening from detomidine-induced sedation, calves and cows; details: detomidine 0.04-0.06 mg/kg i.m., compound (I) i.v. after 30 min, same dose as detomidine
Procedure: as §2

dogs = assay: Awakening from xylazine-induced sedation in dogs; details: compound (I) 0.1 - 0.3 mg/kg i.v. 20 min. after 2 mg/kg of xylazine
Procedure: In other experiments compound (I) was given at a dose of 0.1 - 0.3 mg/kg i.v. 20 min. after the injection of 2 mg/kg of xylazine. The awakening of the dogs and their recovery from the sedation was observed. The dogs recovered from the xylazine-induced sedation in 2 - 3 minutes after the administration of compound (I).

horses and cattle = assay: Sedative and analgesic effect of detomidine in horses and cattle; details: i.m. or i.v.
Excerpt: This invention relates to the preparation of 2-[2-(1,4-benzodioxanyl)]-2-imidazoline, and to its use. Detomidine, which has the formula [drawing 1] is a known compound with sedative and analgesic effect in animals. The potency and the duration of the effect can be regulated by the dosage. The compound is very potent; dosages as small as […] given by injection provide a clinical response. Detomidine is used in veterinary medicine especially in the handling of horses and cattle (pharmacological restraint). The animal is sedated before investigation, treatment and difficult medical operations. Even small surgical operations cannot be carried out without the use of a sedative agent.
The analgesic effect is dose dependent. […] Table 1: The effect of detomidine in horses and cattle. Dosage i.m. or i.v.

With `Cc1cccc(C)c1Cc1c[nH]cn1` [4-(2,6-dimethylbenzyl) imidazole, 4-(2,6-dimethylbenzyl)imidazole] the “duration of loss of the righting reflex” value (rats [1]) was 1 h.

`c1ccc2c(c1)OCC(C1=NCCN1)O2` (stereo not drawn) [compound (I), 2-[2-(1,4-benzodioxanyl)]-imidazoline] was tested, and the “counteraction of the sedative effect of 4-(2,6-dimethylbenzyl)imidazole” value (rats [2]) was “fully counteract”, the “time to counteract the sedative effect of 4-(2,6-dimethylbenzyl)imidazole after the administration of compound (I)” value (rats [2]) was 1 to 5 min and the awakening effect (Horses (4)) was “stable”. The side-effects (Horses (4)) was “No side-effects were observed”, the awakening effect (Calves (8) and Cows (7)) was “stable” and the side-effects (Calves (8) and Cows (7)) was “No side-effects were observed”. The awakening effect (dogs) was “stable” and the side-effects (dogs) was “No side-effects were observed”.

For `Cc1cccc(Cc2c[nH]cn2)c1C` [detomidine, Detomidine], the “Delay before the effect begins” value (horses and cattle; dose 20-40 µg/kg) was 3 to 5 min, the Effect (horses and cattle; dose 20-40 µg/kg) was “easy to handle; short effect” and the Other effects (horses and cattle; dose 20-40 µg/kg) was “slight stagger-ing”. For the same molecule, the “Delay before the effect begins” value (horses and cattle; dose 40-80 µg/kg) was 2 to 5 min, the Effect (horses and cattle; dose 40-80 µg/kg) was “strong effect” and the Other effects (horses and cattle; dose 40-80 µg/kg) was “stagger-ing, sweating pilo-erection, muscular tremor”. For the same molecule, the “Delay before the effect begins” value (horses and cattle; dose 80-150 µg/kg) was 1 to 5 min, the “Duration of the effect” value (horses and cattle; dose 80-150 µg/kg) was 2 to 6 h and the Other effects (horses and cattle; dose 80-150 µg/kg) was “Strong stagger-ing, pilo-erection, sweating, diuresis”.
